Laboratory results taken from patent US20030207933A1, “Compositions and methods for increasing the sensitivity of apoptosis-resistant tumor cells to inducers of apoptosis” (priority 2002, published 2003).
“Also recorded” adds a separate entry of the source.

Columns and labels:
[1] = Body weight of RIF-1 tumor bearing mice
From the text: Groups of five mice each were inoculated s.c. with RIF-1 cells. The tumors were allowed to grow for 12 days to a size of 0.5 cm diameter, which was designated day 0. […] The mice were weighed and the tumor size measured every day.

HL-60 Bcl-2 cells = assay: DNA fragmentation (release of 3H-labeled DNA fragments) in Bcl-2-transfected HL-60 cells; type: cell-based, human
Ramos B lymphoma cells = assay: Dox cytotoxicity by trypan blue exclusion in Ramos cells; type: cell-based; settings: 24 hr
Procedure: In the present study, the sensitizing activity of W-188 and W-143 was tested in the Raji and Ramos cell lines. Since these two human B lymphoma lines naturally express high levels of anti-apoptotic Bcl-2 proteins, they may be more clinically relevant than the transfected HL-60-Bcl-2 line.
The sensitizing effects of W-143 and W-188 were first tested on these lines in vitro. […] Ramos cells were cultured with different concentrations of Dox with and without W-143 or W-188 at 20 μg/ml for 24 hr, and then viability assessed microscopically by counting at least 100 cells.

Water solubility = type: physicochemical
mice [2] = assay: Acute single dose toxicity; type: in vivo; settings: 1000 mg/kg single dose
Procedure: The present study assessed the acute single-dose toxicity of W-188 and W-143.
Solutions of W-188 were dissolved in DMSO and injected i.p. in groups of three mice each as well as vehicle control at 500 mg/kg.
Since W-143 is water-soluble, higher doses could be tested.
Therefore, the MTD (maximum tolerated dose) for a single dose of either compound is estimated to be 500 mg/kg.

mice [3] = assay: Multiple dose toxicity with histopathological analysis; type: in vivo
Procedure: In the present study, more extensive toxicity studies with histopathological analysis of seven different tissues was performed on W-143 at a commercial lab.
Groups of six mice (3 male and 3 females) each were given three i.p. injections at two day intervals of vehicle, doxorubicin 5 mg/kg alone, W-143 200 mg/kg alone or both together. On day 5 and day 15 after the last injection, mice were sacrificed, necropsied, and tissue samples processed. Tissues examined include bone marrow, liver, heart, small and large intestine, 1 sex organ, and kidney.

Bcl-2 = assay: Western blot for expression of Bcl-2 in RIF-1 tumors in vivo; design: species or system mice; settings: day 15
From the text: Cells were dissociated, lysed, and the nuclei and mitochondria separated by differential centrifugation. RIF-1 cells cultured in vitro were processed in a similar manner as a positive control. Equal amounts of protein extracts were separated by electrophoresis and analyzed by Western blot for expression of Bcl-2. […] The pattern of Bcl-2 expression was similar in the nuclei, although the overall levels were lower than in the mitochondria. […] Most likely, this discrepancy can be explained by the fact that this line is transfected with exogenous Bcl-2, whereas the RIF-1 line expresses endogenous Bcl-2 under control of its natural promoter. […] Alternatively, W-188 and W-143 may differ in their mechanisms of action, although this conclusion seems less likely in view of the structural similarity of these two compounds.

RIF-1 fibrosarcoma = RIF-1 fibrosarcoma tumor growth in vivo; design: species or system mice; settings: for Inhibition of tumor growth compared to vehicle control: day 15
From the text: The present study tested in the ability of W-188 to synergize with Dox and inhibit tumor growth in vivo. The RIF-1 fibrosarcoma model was used because this model has been well-characterized, and naturally expresses high Bcl-2 levels and has a consistent growth pattern (Nahabedian, M. Y., et al., J. Natl. Can. Inst., 1988, 80:739; Chang, M-J., et al., Cancer Res., 1994, 54:5380; Srivastana, M., et al., J. Biol. Chem., 2001, 276:15481).
Groups of five mice each were inoculated s.c. with RIF-1 cells. The tumors were allowed to grow for 12 days to a size of 0.5 cm diameter, which was designated day 0. The mice were then given five i.p. injections every other day with vehicle, Dox 2.5 mg/kg, Dox 5.0 mg/kg, W-188 100 mg/kg, and Dox 5.0 mg/kg+W-188 100 mg/kg. The mice were weighed and the tumor size measured every day.
The protocol was similar to that described for the W-188 experiment in Example 8, except that in this study, mice with established tumors received only three injections of W-143 or Dox every other day starting on day 0.

[4] = W-143 100 mg/kg alone, data not shown

Q: For `CCC1=C(C)C(=O)NC1C` (centres unmarked) [W-143, 3,5-dimethyl-4-ethyl-2-oxo-2,5-dihydropyrrole], which Body weight ([1]; Dox + W-143 100 mg/kg, any time point) is on record?
A: did not show any greater weight loss

Q: What about the Body weight ([1]; Dox + W-143 200 mg/kg, day 13) of the same molecule?
A: weighed just as much as mice treated with Dox alone on day 13

Q: What about the Body weight [1, 4] of the same molecule?
A: weighed similar to the vehicle control mice

Q: And the “Sensitization to etoposide-induced apoptosis” value (HL-60 Bcl-2 cells)?
A: sensitize 1L-60-Bcl-2 cells to etoposide-induced apoptosis

Q: And the “% DNA Fragmentation” value (HL-60 Bcl-2 cells; Exp 5, etoposide 10 μM + compound 10 μM)?
A: 34%

Q: What about the “Toxicity of compound alone” value (Ramos B lymphoma cells; 20 μg/ml, no Dox) of the same molecule?
A: completely nontoxic

Q: What about the “Increase of cytotoxicity mediated by Dox” value (Ramos B lymphoma cells; compound 20 μg/ml + Dox, FIG. 6) of the same molecule?
A: over two fold

Q: And the Water solubility (Water solubility)?
A: water soluble; also recorded: water-soluble

Q: And the Deaths (mice [2])?
A: All three mice injected with 1000 mg/kg of W-143 died within 24 h

Q: What about the Histopathology (mice [3]; W-143 200 mg/kg alone, three i.p. injections at two day intervals, day 5) of the same molecule?
A: minor vacuolar changes in the liver

Q: What about the Histopathology (mice [3]; W-143 200 mg/kg alone, day 15) of the same molecule?
A: all tissues were normal

Q: And the Histopathology (mice [3]; doxorubicin 5 mg/kg + W-143 200 mg/kg, three i.p. injections, day 5)?
A: minor vacuolar changes in the liver

Q: And the Histopathology (mice [3]; doxorubicin 5 mg/kg + W-143 200 mg/kg, day 15)?
A: all tissues were normal

Q: What about the “Bcl-2 expression in tumor cell mitochondria” value (Bcl-2; Dox + W-143, FIG. 16 lane 10) of the same molecule?
A: no detectable Bcl-2

Q: What about the “Bcl-2 expression in tumor cell mitochondria” value (Bcl-2; W-143 alone, FIG. 16) of the same molecule?
A: expressed high levels of Bcl-2

Q: And the “Inhibition of tumor growth compared to vehicle control” value (RIF-1 fibrosarcoma; Dox + W-143 100 mg/kg, p=0.005)?
A: 70%

Q: And the “Inhibition of tumor growth compared to vehicle control” value (RIF-1 fibrosarcoma; Dox + W-143 200 mg/kg, p=0.001)?
A: 83%

Q: And the “Effect on tumor growth” value (RIF-1 fibrosarcoma; [4])?
A: did not decrease tumor growth

Q: And the “Effect on tumor growth” value (RIF-1 fibrosarcoma; W-143 200 mg/kg alone, three injections, FIG. 14)?
A: only a small effect on tumor growth

Q: And the “Effect on tumor growth” value (RIF-1 fibrosarcoma; W-143 + Dox combined)?
A: synergistically inhibited tumor growth
